The target in data set [1] is T1, C-X-C chemokine receptor type 4 (Homo sapiens, UniProt P61073). Kind of data set: Antagonist activity at CXCR4 in human CCRF-CEM cells assessed as inhibition of anti-CXCR4 binding preincubated with compound for 45 mins followed by anti-CXCR4 PE antibody addition and measured after 30 mins by fluorescence based competitive binding assay. The data set is classed as functional, cell-based.

Data set [2] addresses T1, C-X-C chemokine receptor type 4. Kind of data set: Displacement of 125I-CXCL12 from CXCR4 in human CCRF-CEM cells measured after 1 hr by competitive binding assay. It is filed as cell-based. In general terms: In a radioligand displacement assay an active substance lowers the binding of a labelled ligand.
Data set [3] in a line: Stability of the compound assessed as parent compound remaining in PBS buffer at pH 7.4 at 10 uM measured after 1 hr in presence of glutathione by RP-HPLC analysis. The data set is classed as physicochemical. To be noted: PBS buffer with glutathione, read-out: Stability.
Data set [4] in a line: Stability of the compound assessed as parent compound remaining in PBS buffer at pH 7.4 at 10 uM measured after 8 hr in presence of glutathione by RP-HPLC analysis. The data set is classed as physicochemical. Conditions: PBS buffer with glutathione, read-out: Stability.
Data set [5] addresses T2, Atypical chemokine receptor 3 (Homo sapiens, UniProt P25106). Kind of data set: Binding affinity to CXCR7 (unknown origin) overexpressing human MCF7 cells by flow cytometry analysis. The data set is classed as cell-based.
For data set [6], the target named is T2, Atypical chemokine receptor 3. Kind of data set: Inhibition of CXCR7 (unknown origin) overexpressing human MCF7 cells at upto 10 uM by flow cytometry analysis relative to control. It is filed as cell-based. In general terms: In flow cytometry, cells or beads pass a laser one at a time.
Data set [7] concerns CCRF-CEM. Kind of data set: Inhibition of CXCL12-induced cell migration in human CCRF-CEM cells measured after 6 hrs by DAPI staining based analysis. Conditions: dose 0.01-10 µM. The data set is classed as functional.
Data set [8] addresses T1, C-X-C chemokine receptor type 4. In words: Agonist activity at CXCR4 (unknown origin) transfected with CHO cells cotransfected with CXCR4-GFP assessed as induction of CXCR4 internalization at 0.1 to 1 uM incubated for 45 mins by DAPI staining based microscopy analysis. It is filed as functional, cell-based. To be noted: dose 0.1-1 µM.
Data set [9] shares this target. Kind of data set: Antagonist activity at CXCR4 (unknown origin) transfected with CHO cells cotransfected with CXCR4-GFP assessed as inhibition of CXCL12 induced CXCR4 internalization at upto 1 uM preincubated for 45 mins followed by CXCL12 stimulation and measured after 30 to 90 mins by DAPI staining based microscopy analysis. The data set is classed as functional, cell-based. To be noted: time 75-135 min.

Data set [10] shares this target. In words: Agonist activity at CXCR4 in human CEM cells assessed as induction of CXCR4 internalization at 0.1 to 1 uM incubated for 45 mins by flow cytometry analysis. The data set is classed as functional, cell-based. Conditions: dose 0.1-1 µM.
Data set [11] can be described thus: Stability of the compound assessed as parent compound remaining in PBS buffer at pH 7.4 at 10 uM measured upto 8 hr in presence of glutathione by RP-HPLC analysis. The data set is classed as physicochemical. Conditions: pH 7.4, 8 h.
Data set [12] has as its target T2, Atypical chemokine receptor 3. In words: Binding affinity to CXCR7 (unknown origin) overexpressing human MCF7 cells at upto 10 uM by flow cytometry analysis. The data set is classed as cell-based.
Data set [13] has as its system CCRF-CEM. In words: Inhibition of CXCL12-induced cell migration in human CCRF-CEM cells at 0.01 to 10 uM measured after 6 hrs by DAPI staining based analysis. It is filed as functional. Conditions: dose 0.01-10 µM.
Data set [14] addresses T1, C-X-C chemokine receptor type 4. In words: Antagonist activity at CXCR4 in human CEM cells assessed as inhibition of CXCL12-induced CXCR4 internalization at 0.1 to 1 uM preincubated for 45 mins followed by CXCL12 stimulation and measured after 30 mins by flow cytometry analysis. The data set is classed as functional, cell-based. Conditions: filed as antagonist, dose 0.1-1 µM, time 75.0 min.

The IC50 is the concentration that inhibits the measured activity by half. Broadly, the inhibition is the share of the control response that was lost under treatment.

Calls of active or inactive are those of the source. The rule behind the calls is not given here.

T2 sequence (P25106 whole entry): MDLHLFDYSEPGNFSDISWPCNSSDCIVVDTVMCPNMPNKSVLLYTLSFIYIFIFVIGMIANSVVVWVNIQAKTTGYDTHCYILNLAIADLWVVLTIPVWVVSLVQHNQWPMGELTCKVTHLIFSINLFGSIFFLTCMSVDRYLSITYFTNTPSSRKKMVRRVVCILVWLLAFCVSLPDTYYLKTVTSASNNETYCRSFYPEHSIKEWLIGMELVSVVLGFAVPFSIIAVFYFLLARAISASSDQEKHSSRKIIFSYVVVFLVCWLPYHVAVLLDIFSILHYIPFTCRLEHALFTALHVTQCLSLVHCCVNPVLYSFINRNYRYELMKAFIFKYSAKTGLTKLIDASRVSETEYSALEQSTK
T1 sequence (P61073 whole entry): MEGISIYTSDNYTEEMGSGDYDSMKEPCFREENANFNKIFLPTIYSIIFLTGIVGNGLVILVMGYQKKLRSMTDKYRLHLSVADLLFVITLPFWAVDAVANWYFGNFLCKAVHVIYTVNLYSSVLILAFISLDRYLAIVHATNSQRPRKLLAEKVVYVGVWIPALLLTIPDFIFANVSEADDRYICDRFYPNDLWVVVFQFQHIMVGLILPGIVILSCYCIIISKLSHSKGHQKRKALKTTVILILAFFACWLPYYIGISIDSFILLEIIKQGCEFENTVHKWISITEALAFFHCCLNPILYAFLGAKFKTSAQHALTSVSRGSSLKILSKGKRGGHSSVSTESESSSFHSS

Regarding `CC(=O)N[C@@H](CCCNC(=N)N)C(=O)N[C@@H](C)C(=O)N[C@@H]1CCCCNC(=O)[C@H](CC(=O)O)NC(=O)[C@H](Cc2c[nH]cn2)NC(=O)[C@H](Cc2ccc3ccccc3c2)NC(=O)[C@H](CCCNC(=N)N)NC1=O`, the IC50 in [1] (ccrf-cem) was found to be 1.71 µM. Take `CC(=O)N[C@@H](CCCNC(=N)N)C(=O)N[C@@H](C)C(=O)N[C@@H]1CSSC(C)(C)[C@@H](C(=O)O)NC(=O)[C@H](Cc2cnc[nH]2)NC(=O)[C@H](Cc2ccc3ccccc3c2)NC(=O)[C@H](CCCNC(=N)N)NC1=O`: the IC50 in data set [1] is 0.001 µM; in data set [2] it was 0.0047 µM. Besides, in data set [3], the remaining at 1 h, 10 µM was about 88%. Further, the remaining at 8 h, 10 µM in data set [4] is about 52%. As for `CC(=O)N[C@@H](CCCNC(=N)N)C(=O)N[C@@H](C)C(=O)N[C@@H]1CNC(=O)[C@@H](CC(=O)O)NC(=O)[C@H](Cc2c[nH]cn2)NC(=O)[C@H](Cc2ccc3ccccc3c2)NC(=O)[C@H](CCCNC(=N)N)NC1=O`, the IC50 in data set [1] turned out to be 0.1 µM. Consider `CC(=O)N[C@@H](CCCNC(=N)N)C(=O)N[C@@H](C)C(=O)N[C@@H]1CCCCNC(=O)[C@H](CCC(=O)O)NC(=O)[C@H](Cc2c[nH]cn2)NC(=O)[C@H](Cc2ccc3ccccc3c2)NC(=O)[C@H](CCCNC(=N)N)NC1=O`, for which the 50% inhibitory concentration (IC50) in data set [1] (ccrf-cem) was over 10 µM. Still for that read-out and setting: the figure for `CC(=O)N[C@@H](CCCNC(=N)N)C(=O)N[C@@H](C)C(=O)N[C@@H]1CNC(=O)[C@H](CCC(N)=O)NC(=O)[C@H](Cc2c[nH]cn2)NC(=O)[C@H](Cc2ccc3ccccc3c2)NC(=O)[C@H](CCCNC(=N)N)NC1=O` is 0.243 µM. In the case of `CC(=O)N[C@@H](CCCNC(=N)N)C(=O)N[C@@H](C)C(=O)N[C@H]1CNC(=O)[C@@H](CCC(=O)O)NC(=O)[C@H](Cc2c[nH]cn2)NC(=O)[C@H](Cc2ccc3ccccc3c2)NC(=O)[C@H](CCCNC(=N)N)NC1=O`, the IC50 in data set [1] was 0.05 µM; in [2], 0.048 µM; in data set [5] it was over 10 µM. Further, the figures for the inhibition (in data set [6]; in the data set on CCRF-CEM [7]) were 37% and “Dose-Dependent Effect”, respectively. Further, the outcome in [8], in [9] and in data set [10] was inactive. In data set [11], the Stability entry is reported as “Stable”. With `CC(=O)N[C@@H](CCCNC(=N)N)C(=O)N[C@@H](C)C(=O)N[C@@H]1CNC(=O)[C@H](CCC(C)C)NC(=O)[C@H](Cc2c[nH]cn2)NC(=O)[C@H](Cc2ccc3ccccc3c2)NC(=O)[C@H](CCCNC(=N)N)NC1=O`, in data set [1] (ccrf-cem), the concentration for half-maximal inhibition (IC50) worked out at 0.113 µM. Consider `CC(=O)N[C@@H](CCCNC(=N)N)C(=O)N[C@@H](C)C(=O)N[C@@H]1CNC(=O)[C@H](Cc2ccccc2)NC(=O)[C@H](Cc2c[nH]cn2)NC(=O)[C@H](Cc2ccc3ccccc3c2)NC(=O)[C@H](CCCNC(=N)N)NC1=O`, for which, in data set [1] (ccrf-cem), the IC50 came to 0.344 µM.

In data set [2] (ccrf-cem), `CC(=O)N[C@@H](CCCNC(=N)N)C(=O)N[C@@H](C)C(=O)N[C@@H]1CCn2nncc2C[C@@H](C(=O)O)NC(=O)[C@H](Cc2c[nH]cn2)NC(=O)[C@H](Cc2ccc3ccccc3c2)NC(=O)[C@H](CCCNC(=N)N)NC1=O` came in with an IC50 of 0.03 µM.

For the molecule `CC(=O)N[C@@H](CCCNC(=N)N)C(=O)N[C@@H](C)C(=O)N[C@@H]1CCCNC(=O)[C@H](CCC(=O)O)NC(=O)[C@H](Cc2c[nH]cn2)NC(=O)[C@H](Cc2ccc3ccccc3c2)NC(=O)[C@H](CCCNC(=N)N)NC1=O`, the IC50 in data set [1] (ccrf-cem) was over 10 µM. Consider `CC(=O)N[C@@H](CCCNC(=N)N)C(=O)N[C@@H](C)C(=O)N[C@@H]1CNC(=O)[C@H](CCC(=O)O)NC(=O)[C@H](Cc2c[nH]cn2)NC(=O)[C@H](Cc2ccc3ccccc3c2)NC(=O)[C@H](CCCNC(=N)N)NC1=O`, for which the concentration for half-maximal inhibition (IC50) in [1] was over 10 µM. The molecule `CC(=O)N[C@@H](CCCNC(=N)N)C(=O)N[C@@H](C)C(=O)N[C@@H]1Cn2cc(nn2)C[C@@H](C(=O)O)NC(=O)[C@H](Cc2c[nH]cn2)NC(=O)[C@H](Cc2ccc3ccccc3c2)NC(=O)[C@H](CCCNC(=N)N)NC1=O` returned an IC50 in data set [2] (ccrf-cem) of 0.036 µM.

For the molecule `CC(=O)N[C@@H](CCCNC(=N)N)C(=O)N[C@@H](C)C(=O)N[C@@H]1CCNC(=O)[C@H](CCC(=O)O)NC(=O)[C@H](Cc2c[nH]cn2)NC(=O)[C@H](Cc2ccc3ccccc3c2)NC(=O)[C@H](CCCNC(=N)N)NC1=O`, in data set [1] (ccrf-cem), the IC50 stood at 0.78 µM. Still for that read-out and setting: in the case of `CC(=O)N[C@@H](CCCNC(=N)N)C(=O)N[C@@H](C)C(=O)N[C@@H]1CCCNC(=O)[C@H](CC(=O)O)NC(=O)[C@H](Cc2c[nH]cn2)NC(=O)[C@H](Cc2ccc3ccccc3c2)NC(=O)[C@H](CCCNC(=N)N)NC1=O` it was 0.96 µM. Consider `CC(=O)N[C@@H](CCCNC(=N)N)C(=O)N[C@@H](C)C(=O)N[C@@H]1CSSC(C)(C)[C@H](C(=O)O)NC(=O)[C@H](Cc2c[nH]cn2)NC(=O)[C@H](Cc2ccc3ccccc3c2)NC(=O)[C@H](CCCNC(=N)N)NC1=O`, for which the outcome in data set [12], in data set [8] and in data set [10] was inactive. Also, the inhibition entry with CCRF-CEM [13] is “Active”. Further, the outcome in data set [14] was Active.

`CC(=O)N[C@@H](CCCNC(=N)N)C(=O)N[C@@H](C)C(=O)N[C@@H]1CCNC(=O)[C@H](CC(=O)O)NC(=O)[C@H](Cc2c[nH]cn2)NC(=O)[C@H](Cc2ccc3ccccc3c2)NC(=O)[C@H](CCCNC(=N)N)NC1=O`: in data set [1] (ccrf-cem), the IC50 amounted to 0.2 µM. For `CC(=O)N[C@@H](CCCNC(=N)N)C(=O)N[C@@H](C)C(=O)N[C@H]1CNC(=O)[C@@H](CC(=O)O)NC(=O)[C@H](Cc2c[nH]cn2)NC(=O)[C@H](Cc2ccc3ccccc3c2)NC(=O)[C@H](CCCNC(=N)N)NC1=O`, in [1], the 50% inhibitory concentration (IC50) stood at 0.187 µM.

These data come from ChEMBL document CHEMBL5608204, “Disulfide bond replacement with non-reducible side chain to tail macrolactamization for the development of potent and selective CXCR4 peptide antagonists endowed with flanking binding sites” (Eur J Med Chem, 2024).
